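Test compounds were applied to cells in 96-well plates for 48 hours at 5 doses. GI50 is the concentration that inhibits growth by half.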 Calls of active or inactive are those of the source. No stated cut-off is given here; in the data, active = GI50 up to about 1.1 µM and inactive = higher.
Legend:
Experiment in all cases: NCI tumour cell line growth inhibition, 48 h
HOP-92 = system: HOP-92
LOX IMVI = system: LOX IMVI
NCI-H522 = system: NCI-H522
RXF 393 = system: RXF 393
A549 = system: A549
U-251 = system: U-251
ACHN = system: ACHN
UACC-62 = system: UACC-62
RPMI-8226 = system: RPMI-8226
NCI-H23 = system: NCI-H23
NCI-H226 = system: NCI-H226
CCRF-CEM = system: CCRF-CEM
TK-10 = system: TK-10
M14 = system: M14
SN12C = system: SN12C
A498 = system: A498
IGROV-1 = system: IGROV-1
OVCAR-8 = system: OVCAR-8
HOP-62 = system: HOP-62
SK-MEL-2 = system: SK-MEL-2

Compound: CC(=O)N/C(=C\c1ccc(/C=C(\NC(C)=O)C2=NC3C(=O)c4ccccc4C(=O)C3N2)cc1)C1=NC2C(=O)c3ccccc3C(=O)C2N1 (centres undefined)
- GI50 (HOP-92): 30.8 µM (inactive)
- GI50 (LOX IMVI): 6.92 µM (inactive)
- GI50 (NCI-H522): 7.69 µM (inactive)
- GI50 (RXF 393): 13.2 µM (inactive)
- GI50 (A549): 2.34 µM (inactive)
- GI50 (U-251): 9.98 µM (inactive)
- GI50 (ACHN): 4.1 µM (inactive)
- GI50 (UACC-62): 25.8 µM (inactive)
- GI50 (RPMI-8226): 5.05 µM (inactive)
- GI50 (NCI-H23): 26.7 µM (inactive)
- GI50 (NCI-H226): 15.4 µM (inactive)
- GI50 (CCRF-CEM): 0.865 µM (active)
- GI50 (TK-10): 12.1 µM (inactive)
- GI50 (M14): 49.8 µM (inactive)
- GI50 (SN12C): 22.6 µM (inactive)
- GI50 (A498): 5.57 µM (inactive)
- GI50 (IGROV-1): 8.47 µM (inactive)
- GI50 (OVCAR-8): 22.4 µM (inactive)

Compound: CC(C)C1CNC(=O)C2(/C=N/C(C(C)C)CNC(=O)C3(/C=N/1)CCCO3)CCCO2 (centres undefined)
- GI50 (HOP-92): > 10 µM (inactive)
- GI50 (NCI-H522): > 10 µM (inactive)
- GI50 (RXF 393): > 10 µM (inactive)
- GI50 (A549): > 10 µM (inactive)
- GI50 (U-251): > 10 µM (inactive)
- GI50 (ACHN): > 10 µM (inactive)
- GI50 (HOP-62): > 10 µM (inactive)
- GI50 (UACC-62): > 10 µM (inactive)
- GI50 (RPMI-8226): > 10 µM (inactive)
- GI50 (NCI-H23): > 10 µM (inactive)
- GI50 (CCRF-CEM): > 10 µM (inactive)
- GI50 (TK-10): > 10 µM (inactive)
- GI50 (M14): > 10 µM (inactive)
- GI50 (SN12C): > 10 µM (inactive)
- GI50 (A498): > 10 µM (inactive)
- GI50 (IGROV-1): > 10 µM (inactive)
- GI50 (OVCAR-8): > 10 µM (inactive)

Compound: O=C(c1ccccc1)c1cn(/N=C\c2ccccc2)c(=O)nc1-c1ccccc1
- GI50 (HOP-92): 92.9 µM (inactive)
- GI50 (LOX IMVI): > 100 µM (inactive)
- GI50 (NCI-H522): > 100 µM (inactive)
- GI50 (RXF 393): > 100 µM (inactive)
- GI50 (A549): > 100 µM (inactive)
- GI50 (U-251): > 100 µM (inactive)
- GI50 (ACHN): > 100 µM (inactive)
- GI50 (HOP-62): > 100 µM (inactive)
- GI50 (UACC-62): > 100 µM (inactive)
- GI50 (NCI-H23): > 100 µM (inactive)
- GI50 (NCI-H226): > 100 µM (inactive)
- GI50 (CCRF-CEM): 70 µM (inactive)
- GI50 (TK-10): > 100 µM (inactive)
- GI50 (SK-MEL-2): > 100 µM (inactive)
- GI50 (M14): > 100 µM (inactive)
- GI50 (SN12C): > 100 µM (inactive)
- GI50 (A498): > 100 µM (inactive)
- GI50 (OVCAR-8): > 100 µM (inactive)

Compound: O=C1C[C@H](c2ccccc2)C2(C(=O)c3ccccc3C2=O)[C@@H](c2ccccc2)C1
- GI50 (HOP-92): 13.6 µM (inactive)
- GI50 (NCI-H522): 30.2 µM (inactive)
- GI50 (RXF 393): 6.04 µM (inactive)
- GI50 (U-251): 31.5 µM (inactive)
- GI50 (HOP-62): 38.5 µM (inactive)
- GI50 (UACC-62): 11.8 µM (inactive)
- GI50 (RPMI-8226): > 100 µM (inactive)
- GI50 (NCI-H23): 32.5 µM (inactive)
- GI50 (NCI-H226): 24.9 µM (inactive)
- GI50 (CCRF-CEM): 9.55 µM (inactive)
- GI50 (SK-MEL-2): 12.8 µM (inactive)
- GI50 (M14): 6.24 µM (inactive)
- GI50 (SN12C): 24.2 µM (inactive)
- GI50 (A498): 7.64 µM (inactive)
- GI50 (IGROV-1): 16.3 µM (inactive)
- GI50 (OVCAR-8): 35.6 µM (inactive)

Compound: O=C(/C=C/c1ccc(Cl)c(Cl)c1)C1CCC(Cl)CC1 (centres undefined)
- GI50 (HOP-92): 36.7 µM (inactive)
- GI50 (LOX IMVI): 16.1 µM (inactive)
- GI50 (NCI-H522): 16.7 µM (inactive)
- GI50 (RXF 393): 17.9 µM (inactive)
- GI50 (A549): 20 µM (inactive)
- GI50 (U-251): 15.1 µM (inactive)
- GI50 (ACHN): 17.1 µM (inactive)
- GI50 (HOP-62): 57.3 µM (inactive)
- GI50 (UACC-62): 17 µM (inactive)
- GI50 (RPMI-8226): 4.69 µM (inactive)
- GI50 (NCI-H23): 17.9 µM (inactive)
- GI50 (NCI-H226): 31.2 µM (inactive)
- GI50 (TK-10): 32.7 µM (inactive)
- GI50 (M14): 18.5 µM (inactive)
- GI50 (SN12C): 17.7 µM (inactive)
- GI50 (A498): 22.4 µM (inactive)
- GI50 (IGROV-1): 17.1 µM (inactive)
- GI50 (OVCAR-8): 18.8 µM (inactive)

Compound: Cc1cc(NS(=O)(=O)c2ccc(Nc3c4ccccc4nc4c(C(=O)N5CCN(CCO)CC5)ccc(Cl)c34)cc2)no1
- GI50 (HOP-92): > 100 µM (inactive)
- GI50 (RXF 393): > 100 µM (inactive)
- GI50 (A549): > 100 µM (inactive)
- GI50 (U-251): > 100 µM (inactive)
- GI50 (HOP-62): > 100 µM (inactive)
- GI50 (UACC-62): 42.5 µM (inactive)
- GI50 (RPMI-8226): 70.1 µM (inactive)
- GI50 (NCI-H23): > 100 µM (inactive)
- GI50 (NCI-H226): > 100 µM (inactive)
- GI50 (CCRF-CEM): 28.8 µM (inactive)
- GI50 (TK-10): > 100 µM (inactive)
- GI50 (SK-MEL-2): 42.1 µM (inactive)
- GI50 (M14): > 100 µM (inactive)
- GI50 (SN12C): 72.1 µM (inactive)
- GI50 (A498): > 100 µM (inactive)
- GI50 (IGROV-1): 96.2 µM (inactive)
- GI50 (OVCAR-8): > 100 µM (inactive)
